From ChEMBL document CHEMBL4118195, “Synthesis and profiling of benzylmorpholine 1,2,4,5-tetraoxane analogue N205: Towards tetraoxane scaffolds with potential for single dose cure of malaria” (Bioorg Med Chem, 2018)

Columns and labels:
[1] = system: Plasmodium falciparum; experiment: Antimalarial activity against Plasmodium falciparum 3D7 infected in human erythrocytes after 48 hrs by SYBR Green I dye-based fluorescence assay; type: functional, organism-based; conditions: 3D7, 48 h
[2] = Plasma concentration in Plasmodium berghei infected mouse at 30 mg/kg, po administered as single dose after 24 hrs; type: ADME, organism-based
[3] = Drug degradation in human liver microsomes assessed as compound half life at 1 uM by UPLC-MS method; type: ADME, microsome
[4] = Drug degradation in rat liver microsomes assessed as compound half life at 1 uM by UPLC-MS method; type: ADME, microsome
[5] = Drug degradation in mouse liver microsomes assessed as compound half life at 1 uM by UPLC-MS method; type: ADME, microsome
[6] = Drug degradation in mouse liver microsomes assessed as compound half life at 5 uM by UPLC-MS method; type: ADME, microsome
[7] = Intrinsic clearance in rat liver microsomes assessed per mg protein at 1 uM by UPLC-MS analysis; type: ADME, microsome; conditions: read-out: CLH
[8] = Intrinsic clearance in rat liver microsomes assessed per mg protein at 5 uM by UPLC-MS analysis; type: ADME, microsome; conditions: read-out: CLH
[9] = Intrinsic clearance in mouse liver microsomes assessed per mg protein at 5 uM by UPLC-MS analysis; type: ADME, microsome; conditions: read-out: CLH
[10] = Drug metabolism in rat liver microsomes assessed as metabolite 4-(4-(morpholinomethyl)phenyl)cyclohexanol formation at 5 uM after 60 mins by UPLC-MS analysis; type: ADME, microsome; conditions: 1 h
[11] = Drug metabolism in human liver microsomes assessed as ring dehydrogenated metabolite formation at 5 uM after 60 mins by UPLC-MS analysis; type: ADME, microsome; conditions: 1 h
[12] = Drug metabolism in rat liver microsomes assessed as ring dehydrogenated metabolite formation at 5 uM after 60 mins by UPLC-MS analysis; type: ADME, microsome; conditions: 1 h
[13] = Drug metabolism in mouse liver microsomes assessed as ring dehydrogenated metabolite formation at 5 uM after 60 mins by UPLC-MS analysis; type: ADME, microsome; conditions: 1 h
[14] = Drug metabolism in human liver microsomes assessed as morpholine ring opened metabolite formation at 5 uM after 60 mins by UPLC-MS analysis; type: ADME, microsome; conditions: 1 h
[15] = Drug metabolism in rat liver microsomes assessed as morpholine ring opened metabolite formation at 5 uM after 60 mins by UPLC-MS analysis; type: ADME, microsome; conditions: 1 h
[16] = Drug metabolism in mouse liver microsomes assessed as morpholine dealkylated metabolite formation at 5 uM after 60 mins by UPLC-MS analysis; type: ADME, microsome; conditions: 1 h
[17] = Drug metabolism in rat liver microsomes assessed as deaminated morpholine metabolite formation at 5 uM after 60 mins by UPLC-MS analysis; type: ADME, microsome; conditions: 1 h
[18] = Drug metabolism in human liver microsomes assessed as open morpholine ring metabolite formation at 5 uM after 60 mins by UPLC-MS analysis; type: ADME, microsome; conditions: 1 h
[19] = Drug metabolism in rat liver microsomes assessed as open morpholine ring metabolite formation at 5 uM after 60 mins by UPLC-MS analysis; type: ADME, microsome; conditions: 1 h
[20] = Drug metabolism in mouse liver microsomes assessed as open morpholine ring metabolite formation at 5 uM after 60 mins by UPLC-MS analysis; type: ADME, microsome; conditions: 1 h
[21] = Drug metabolism in mouse liver microsomes assessed as deaminated morpholine acid metabolite formation at 5 uM after 60 mins by UPLC-MS analysis; type: ADME, microsome; conditions: 1 h
[22] = Drug metabolism in human liver microsomes assessed as bis-oxygenation and dehydrogenation metabolite formation at 5 uM after 60 mins by UPLC-MS analysis; type: ADME, microsome; conditions: 1 h
[23] = Drug metabolism in rat liver microsomes assessed as bis-oxygenation and dehydrogenation metabolite formation at 5 uM after 60 mins by UPLC-MS analysis; type: ADME, microsome; conditions: 1 h
[24] = Drug metabolism in rat liver microsomes assessed as mono-oxygenation and dehydrogenation metabolite formation at 5 uM after 60 mins by UPLC-MS analysis; type: ADME, microsome; conditions: 1 h
[25] = target: Cytochrome P450 3A4 (Homo sapiens, UniProt P08684); experiment: Inhibition of CYP3A4 in human liver microsomes assessed as midazolam 1'-hydroxylation after 4 to 40 mins in presence of NADPH by LCMS analysis; type: ADME
Chain of Cytochrome P450 3A4 (P08684 whole entry): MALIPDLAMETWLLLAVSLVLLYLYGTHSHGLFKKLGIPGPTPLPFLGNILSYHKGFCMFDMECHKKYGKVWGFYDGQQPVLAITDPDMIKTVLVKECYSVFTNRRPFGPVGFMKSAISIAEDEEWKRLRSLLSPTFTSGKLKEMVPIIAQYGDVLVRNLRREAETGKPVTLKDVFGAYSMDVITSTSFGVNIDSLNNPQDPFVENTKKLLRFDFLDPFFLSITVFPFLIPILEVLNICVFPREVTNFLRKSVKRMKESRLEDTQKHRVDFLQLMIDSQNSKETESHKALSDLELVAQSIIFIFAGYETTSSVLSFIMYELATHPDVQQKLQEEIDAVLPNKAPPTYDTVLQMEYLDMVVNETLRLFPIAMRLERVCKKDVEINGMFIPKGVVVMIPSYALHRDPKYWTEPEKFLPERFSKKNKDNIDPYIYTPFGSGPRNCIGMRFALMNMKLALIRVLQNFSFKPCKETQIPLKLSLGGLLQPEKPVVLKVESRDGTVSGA

[26] = system: Plasmodium falciparum; experiment: Antimalarial activity against Plasmodium falciparum Pf3D70087/N9 infected in po dosed humanized NOD.Cg-Prkdcscid Il2rgtm1Wjl/SzJ mouse assessed as reduction in parasitemia administered as single dose measured on day 7 post infection by SYTO-16 dye-based flow cytometric analysis; type: functional; conditions: 168 h
[27] = Cmax in humanized NOD.Cg-Prkdcscid Il2rgtm1Wjl/SzJ mouse infected with Plasmodium falciparum Pf3D70087/N9 at 5 mg/kg, po administered as single dose after 0.25 to 23 hrs by LC-MS/MS analysis; type: ADME, organism-based; set-up: dose 5 mg/kg, route oral; conditions: in vivo
[28] = system: Mus musculus; experiment: Dose normalized Cmax in humanized NOD.Cg-Prkdcscid Il2rgtm1Wjl/SzJ mouse infected with Plasmodium falciparum Pf3D70087/N9 at 15 mg/kg, po administered as single dose after 0.25 to 23 hrs by LC-MS/MS analysis; type: ADME, organism-based; conditions: in vivo
[29] = system: Mus musculus; experiment: Dose normalized Cmax in humanized NOD.Cg-Prkdcscid Il2rgtm1Wjl/SzJ mouse infected with Plasmodium falciparum Pf3D70087/N9 at 30 mg/kg, po administered as single dose after 0.25 to 23 hrs by LC-MS/MS analysis; type: ADME, organism-based; conditions: in vivo
[30] = system: Mus musculus; experiment: Dose normalized Cmax in humanized NOD.Cg-Prkdcscid Il2rgtm1Wjl/SzJ mouse infected with Plasmodium falciparum Pf3D70087/N9 at 50 mg/kg, po administered as single dose after 0.25 to 23 hrs by LC-MS/MS analysis; type: ADME, organism-based; conditions: in vivo
[31] = system: Mus musculus; experiment: Dose normalized Cmax in humanized NOD.Cg-Prkdcscid Il2rgtm1Wjl/SzJ mouse infected with Plasmodium falciparum Pf3D70087/N9 at 100 mg/kg, po administered as single dose after 0.25 to 23 hrs by LC-MS/MS analysis; type: ADME, organism-based; conditions: in vivo
[32] = Tmax in humanized NOD.Cg-Prkdcscid Il2rgtm1Wjl/SzJ mouse infected with Plasmodium falciparum Pf3D70087/N9 at 50 mg/kg, po administered as single dose by LC-MS/MS analysis; type: ADME, organism-based; conditions: in vivo
[33] = Tmax in humanized NOD.Cg-Prkdcscid Il2rgtm1Wjl/SzJ mouse infected with Plasmodium falciparum Pf3D70087/N9 at 100 mg/kg, po administered as single dose by LC-MS/MS analysis; type: ADME, organism-based; conditions: in vivo
[34] = AUC (0 to t) in humanized NOD.Cg-Prkdcscid Il2rgtm1Wjl/SzJ mouse infected with Plasmodium falciparum Pf3D70087/N9 at 30 mg/kg, po administered as single dose by LC-MS/MS analysis; type: ADME, organism-based; conditions: in vivo
[35] = AUC (0 to t) in humanized NOD.Cg-Prkdcscid Il2rgtm1Wjl/SzJ mouse infected with Plasmodium falciparum Pf3D70087/N9 at 100 mg/kg, po administered as single dose by LC-MS/MS analysis; type: ADME, organism-based; conditions: in vivo
[36] = system: Mus musculus; experiment: Dose normalized AUC (0 to t) in humanized NOD.Cg-Prkdcscid Il2rgtm1Wjl/SzJ mouse infected with Plasmodium falciparum Pf3D70087/N9 at 15 mg/kg, po administered as single dose by LC-MS/MS analysis; type: ADME, organism-based; conditions: in vivo
[37] = system: Mus musculus; experiment: Dose normalized AUC (0 to t) in humanized NOD.Cg-Prkdcscid Il2rgtm1Wjl/SzJ mouse infected with Plasmodium falciparum Pf3D70087/N9 at 100 mg/kg, po administered as single dose by LC-MS/MS analysis; type: ADME, organism-based; conditions: in vivo
[38] = Half life in Sprague-Dawley rat at 10 mg/kg, po; type: ADME, organism-based; conditions: in vivo

`c1cc(C2CCC3(CC2)OOC2(OO3)C3CC4CC(C3)CC2C4)ccc1CN1CCOCC1` (stereo not drawn) showed an IC50 [1] of 1.3 nM, a concentration at 24 h [2] of over 100 ng/mL and a half-life at 1 µM [3] of 34 min. For the same molecule, the half-life at 1 µM [4] was 15 min, the half-life at 1 µM [5] was 48 min and the half-life at 5 µM [6] was 87 min. It also gave a microsomal CLint at 1 µM [7] of 118 µL/min/mg, a microsomal CLint at 5 µM [8] of 89 µL/min/mg and a microsomal CLint at 5 µM [9] of 20 µL/min/mg. The Drug metabolism [10] was “Metabolite_Detected”, the Drug metabolism [11] was “Metabolite_Notdetected” and the Drug metabolism [12] was “Metabolite_Notdetected”. For the same molecule, the Drug metabolism [13] was “Metabolite_Notdetected”, the Drug metabolism [14] was “Metabolite_Notdetected” and the Drug metabolism [15] was “Metabolite_Notdetected”. For the same molecule, the Drug metabolism [16] was “Metabolite_Notdetected”, the Drug metabolism [17] was “Metabolite_Notdetected” and the Drug metabolism [18] was “Metabolite_Notdetected”. For the same molecule, the Drug metabolism [19] was “Metabolite_Notdetected”, the Drug metabolism [20] was “Metabolite_Notdetected” and the Drug metabolism [21] was “Metabolite_Notdetected”. For the same molecule, the Drug metabolism [22] was “Metabolite_Notdetected”, the Drug metabolism [23] was “Metabolite_Notdetected” and the Drug metabolism [24] was “Metabolite_Notdetected”. The IC50 [25] was over 20 µM, the ED90 [26] was 8.6 mg/kg and the Cmax [27] was 109 ng/mL. The Cmax/dose [28] was 0.0099 µg/mL/mg/kg, the Cmax/dose [29] was 0.0049 µg/mL/mg/kg and the Cmax/dose [30] was 0.0121 µg/mL/mg/kg. It also gave a Cmax/dose [31] of 0.0025 µg/mL/mg/kg, a Tmax [32] of 2 h and a Tmax [33] of 30 min. For the same molecule, the AUC(0-t) [34] was 940 ng·h/mL, the AUC(0-t) [35] was 2320 ng·h/mL and the AUCt/dose [36] was 0.0499 µg·h/mL/mg/kg. For the same molecule, the AUCt/dose [37] was 0.0232 µg·h/mL/mg/kg and the half-life [38] was 1020 min.
